# Results from US3962282A, “Juvenile hormone mimics” (priority 1974, dated 1976).
# Key:
# Tenebrio molitor pupae = assay: topical application to Tenebrio molitor pupae, maturation inhibition; format: in vivo; details: rating scale 0-4
# Outline: (§1)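 Compounds applied topically, 1 μL acetone solution at 10%, 1% or 0.5%, to ten specimens per insect per concentration, alongside acetone and untreated controls; scored after about 8–10 days. Juvenile/adult characteristics rated 0–3 (Tenebrio 0–4), ≥2 meaning unable to reproduce; unreported specimens died during metamorphosis.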
# milkweed bug = assay: topical application to milkweed bug, fourth nymphal stage, maturation inhibition; format: in vivo; details: rating scale 0-3
# Outline: as §1
# wax moth = assay: topical application to wax moth, fifth larval stage, maturation inhibition; format: in vivo
# Outline: as §1
# Southern corn rootworm = Southern corn rootworm larvae in treated petri dishes, adult emergence; format: in vivo, Diabrotica undecimpunctata; details: 21 days
# Description: Petri dishes containing 150 g. of sand were autoclaved for one hour. Corn seed which had been soaked overnight was rinsed first with a solution of 10 percent alcohol, 20 percent chlorox, and 70 percent water for 15 minutes and then with clear water. Three to four seeds were placed in each dish. The dishes were then moistened with 15 ml. of a 100 ppm. solution of a fungicide. After 24 hours, ten Southern corn rootworm eggs (Diabrotica undecimpunctata) were placed in each dish. The dishes were maintained in an incubator in the dark for 14 days. New petri dishes were prepared as described except that the eggs were not added and 2,6-diemthyl-9-(3,4-methylenedioxyphenyl)-2,6-nonadiene was added at a rate of 100 ppm. or 10 ppm. Ten dishes at each treatment rate and ten controls were used. Three larvae from the incubated dishes were placed in each of the treated dishes and each control dish. […] There were a total of 15 adults in the ten dishes treated at 10 ppm. and a total of 19 adults in the ten control dishes.
# [1] = tested on: cockroach nymphs (Blattella germanica); assay: German cockroach nymphs in treated glass jars; format: in vivo; details: for reproduction: four months
# Description: Test jars were prepared by adding 2 ml. of an acetone solution containing 10 mg., 20 mg., or 100 mg. of 2,6-dimethyl-9-(3,4-methylenedioxyphenyl)-2,6-nonadiene to 1 gallon glass jars and allowing the acetone to evaporate. The jars were equipped with watering bottles, food, and paper towels. There were two jars for each rate of test compound and two jars for nontreated controls. To each jar were added 20 40-day-old cockroach nymphs (Blattella germanica). […] Thus, the nonadiene at 100 mg. had prevented reproduction for 4 months.
# aphid nymphs = assay: application to aphid nymphs in acetone; format: in vivo, Aphis gossypi; details: 3 days
# Description: In another test, female aphids were placed on young squash plants and allowed to produce young for 24 hours. After 24 hours, all adult aphids were removed from the plants and the young were maintained on the plants for an additional 48-hour period. This gave an aphid nymph population having an age of 48 to 72 hours. To each nymph was applied […]. of a 10 percent, 1 percent, or 0.5 percent solution of 2.6- dimethyl-9-(3,4-methylenedioxyphenyl)-2,6-nonadiene or 7,8-epoxy-4-ethyl-8-methyl-1-(3,4-methylenedioxyphenyl)-3-decene in acetone and the aphid nymphs were transferred to new squash plants and observed for possible effects. Ten nymphs were treated with each concentration of each compound and 10 were treated with acetone alone while 10 were not treated to serve as controls. […] There was only one dead nymph treated with acetone alone and one dead nymph in the nontreated controls.
# [2] = tested on: Mexican bean beetle larvae; assay: fumigant and residual activity in jars on Mexican bean beetle larvae; format: in vivo
# Description: Fumigant and residual activity of 2,6-dimethyl-9-(3,4-methylenedioxyphenyl)-2,6-nonadiene was determined in the following manner. One milliliter of a 1 percent, a 0.1 percent or a 0.01 percent solution of the test compound was placed in the bottom of a one pint jar. A control was prepared using just acetone. The acetone was allowed to evaporate and 10 Mexican bean beetle larvae were placed on a screen 5 inches from the bottom. The jar was closed for one week at which time the controls emerge as adults and the treated ones are rated as described above. The larvae are replaced weekly.
compound,measurement,setting,value
"CC(C)=CCCC(C)=CCCc1ccc2c(c1)OCO2 [2,6-dimethyl-9-(3,4-methylenedioxyphenyl)-2,6-nonadiene]",number of specimens in rating 4,Tenebrio molitor pupae; 0.5%,9 specimens
same,number of specimens in rating 4,Tenebrio molitor pupae; 1%,10 specimens
same,number of specimens in rating 4,Tenebrio molitor pupae; 10%,10 specimens
same,number of specimens in rating 3,milkweed bug; 0.5%,10 specimens
same,number of specimens in rating 3,milkweed bug; 1%,10 specimens
same,number of specimens in rating 3,milkweed bug; 10%,5 specimens
same,number of specimens in rating 0,"wax moth; 0.5%, rating scale 0-3",8 specimens
same,number of specimens in rating 1,"wax moth; 0.5%, rating scale 0-3",1 specimens
same,number of specimens in rating 0,"wax moth; 1%, rating scale 0-3",9 specimens
same,number of specimens in rating 3,"wax moth; 1%, rating scale 0-3",1 specimens
same,number of specimens in rating 0,"wax moth; 10% in acetone, 1 microliter topical, rating scale 0 (no effect) to 3 (maximum)",7 specimens
same,number of specimens in rating 1,"wax moth; 10%, rating scale 0-3",2 specimens
same,number of specimens in rating 3,"wax moth; 10%, rating scale 0-3",1 specimens
same,total adults in the ten dishes,"Southern corn rootworm; 10 ppm, 19 adults in ten control dishes",15 adults
same,adults emerged,Southern corn rootworm; 100 ppm,no adults had emerged
same,state of adults and nymphs,"[1]; 10 mg, about 2 1/2 months",normal adults and newly hatched nymphs
same,state of adults and nymphs,"[1]; 20 mg, about 2 1/2 months",normal adults and newly hatched nymphs
same,duration of prevented reproduction,[1]; 100 mg,4 months
same,newly hatched nymphs,"[1]; 100 mg, about 2 1/2 months",did not contain newly hatched nymphs
same,wings of adults,"[1]; 100 mg, about 2 1/2 months",all adults in the jars had deformed wings
same,reproduction,[1]; 100 mg,no reproduction
same,reproduction,[1]; lower rate jars (10 and 20 mg),large numbers of newly hatched nymphs
same,dead nymphs,aphid nymphs; 0.5 percent,nine of the ten
same,dead nymphs,aphid nymphs; 1 percent,all of the nymphs
same,dead nymphs,aphid nymphs; 10 percent,all of the nymphs
same,number in rating 0,"[2]; Fifteenth Week, 0.01%",10
same,number in rating 0,"[2]; Fifteenth Week, 0.1%",10
same,number in rating 3,"[2]; Fifteenth Week, 1%",10
same,number in rating 0,"[2]; Fifth Week, 0.01%",10
same,number in rating 3,"[2]; Fifth Week, 0.1%",10
same,number in rating 3,"[2]; Fifth Week, 1%",10
same,number in rating 0,"[2]; First Week, 0.01% (0.1 mg.)",5
same,number in rating 2,"[2]; First Week, 0.01% (0.1 mg.)",1
same,number in rating 3,"[2]; First Week, 0.01% (0.1 mg.)",4
same,number in rating 3,"[2]; First Week, 0.1% (1 mg.)",10
same,number in rating 2,"[2]; First Week, 1% (10 mg.)",1
same,number in rating 3,"[2]; First Week, 1% (10 mg.)",9
same,number in rating 0,"[2]; Second Week, 0.01%",4
same,number in rating 2,"[2]; Second Week, 0.01%",2
same,number in rating 3,"[2]; Second Week, 0.01%",4
same,number in rating 3,"[2]; Second Week, 0.1%",10
same,number in rating 0,"[2]; Second Week, 1%",1
same,number in rating 3,"[2]; Second Week, 1%",10
same,number in rating 0,"[2]; Tenth Week, 0.01%",10
same,number in rating 0,"[2]; Tenth Week, 0.1%",5
same,number in rating 1,"[2]; Tenth Week, 0.1%",2
same,number in rating 2,"[2]; Tenth Week, 0.1%",1
same,number in rating 3,"[2]; Tenth Week, 0.1%",2
same,number in rating 3,"[2]; Tenth Week, 1%",10
same,number in rating 3,"[2]; Twenty-second Week, 1%",10
